Source: patent publication US20230295163A1, “TETRACYCLIC DERIVATIVE, METHOD FOR PREPARING SAME AND USE THEREOF IN MEDICINE” (ZHEJIANG HISUN PHARMACEUTICAL CO., LTD., priority 2020, published 2023)

Assays:
[1] = target: T1, recombinant human KRAS G12C protein (Homo sapiens, UniProt P01116, G12C); experiment: Covalent binding ability to KRAS G12C protein (LC-MS); conditions: 3 μM, 5 min
T1 construct: The recombinant human KRAS G12C protein (aa1-169)
Description: The following method was used to determine the covalent binding ability of the compounds of the present disclosure to recombinant human KRAS G12C protein under in vitro conditions.
The experimental procedure is briefly described as follows: The recombinant human KRAS G12C protein (aa1-169) was prepared with a reaction buffer (20 mM HEPES, 150 mM NaCl, 1 mM MgCl2, 1 mM DTT) at a concentration of 4 μM for later use. The test compound was prepared with DMSO into a 10 mM stock solution, which was then diluted with the reaction buffer for later use. First, 1.5 μL of the test compound diluted with the reaction buffer was added to each well (a final concentration of the reaction system was […]), then added with 23.5 μL of the reaction buffer, mixed well, then added with 25 μL of 4 μM recombinant human KRAS G12C protein for 5 min of incubation at room temperature, and added with 5 μL of acetic acid to stop the reaction. The samples were transferred to injection vials. The ratios of covalent binding between the test compounds and KRAS G12C protein were detected by Agilent 1290/6530 instrument, and the samples were analyzed in a liquid chromatography column (XBridge Protein BEH C4, 300 Å, 3.5 μm, 2.1 mm×50 mm). In the detection process, mobile phase A was 0.1% formic acid aqueous solution, mobile phase B was acetonitrile, the mobile phase elution program was as follows: mobile phase A was kept at 95% at 0-0.5 min, changed to 30% at 2.5 min for 0.5 min, and changed to 95% at 3.1 min for 1.9 min; and flow rate was 0.5 mL/min. Finally, the data was analyzed by MassHunter Workstation Software Bioconfirm Version B.08.00 to obtain the covalent binding rate between the test compound at a concentration of 3 μM and KRAS G12C protein under 5 min of incubation.

NCI-H358 cells = experiment: Inhibition of NCI-H358 cell proliferation (CellTiter-Glo); format: cell-based, human; conditions: Homo sapiens, NCI-H358, 120 h, 120 h of culture; read-out: IC50 inhibiting NCI-H358 cell proliferation
Description: The following method was used to determine the effect of the compounds of the present disclosure on the proliferation of NCI-H358 cells. NCI-H358 cells (containing KRAS G12C mutation) were purchased from the Cell Resource Center, Shanghai Institutes for Biology Sciences, Chinese Academy of Sciences, and cultured in RPMI 1640 medium containing 10% fetal bovine serum, 100 U penicillin, 100 μg/mL streptomycin and 1 mM sodium pyruvate. Cell viability was determined by CellTiter-Glo® Luminescent Cell Viability Assay Kit (Promega, Cat. No. G7573).
The experiment was conducted according to the steps in the kit instruction, which is briefly described as follows: The test compound was first prepared with DMSO into a 10 mM stock solution, which was then diluted with medium into a test sample with a final concentration of the compound ranging from 1000 nM to 0.015 nM Cells in the logarithmic growth phase were inoculated into a 96-well cell culture plate at a density of 800 cells per well, cultured overnight at 37° C. in a 5% CO2 incubator, and then added with the test compound for 120 h of culture. After the culture was completed, 50 μL of CellTiter-Glo detection solution was added to each well, shaken for 5 min and left to stand for 10 min. Subsequently, the luminescence value of the sample in each well was read by a microplate in a luminescence mode. The percentage of inhibition rate of the compounds at each concentration was calculated by comparing with the value of the control group (0.3% DMSO). Then a nonlinear regression analysis on the log concentration-inhibition rate of the compounds was performed by the software GraphPad Prism 5 to obtain the IC50 value of the compound inhibiting NCI-H358 cell proliferation. Table 2 IC50 data of compounds of the present disclosure inhibiting NCI-H358 cell proliferation Compound number IC50(nM)

[2] = test system: NCI-H358 cell xenograft tumor; experiment: Pharmacodynamics in NCI-H358 cell BALB/c nude mouse subcutaneous xenograft model; format: in vivo, BALB/c nude mice; conditions: 10 mg/kg po qd
Description: This test is used to evaluate the anti-tumor effect and safety of the compound 17 of the present disclosure in the animal model of BALB/c nude mouse subcutaneously transplanted with NCI-H358 (human non-small cell lung cancer) cell line after oral intragastric administration for 14 days, once a day.
An appropriate amount of compound 17 was weighed into a 10 mL centrifuge tube, added with an appropriate amount of DMA, shaken by vortex for complete dissolution of the solid matter, then added with an appropriate volume of 30% solutol HS 15, shaken by vortex, mixed well, and added with normal saline to make the ratio of DMA:30% solutol HS 15:saline 10:10:80 (v/v/v), for a preparation at a concentration of 1 mg/mL for administration.
About 3.7×10^6 NCI-H358 cells were subcutaneously inoculated on the right side of the back of female BALB/c nude mice. When the average volume of the tumor reached about 100-150 mm^3, the mice were randomly divided into 2 groups according to the size of the tumor, 6 mice in each group.
After tumor inoculation, a subcutaneous xenograft tumor model was established. Each treatment group and the vehicle control group were orally intragastrically administered for 14 days. The animals were weighed daily, and the tumor volume was measured twice a week.
Formulas for calculating the tumor volume (TV), relative tumor proliferation rate (T/C), relative tumor growth inhibition rate (TGI) and tumor inhibition rate (IR) are as follows: • (1) TV (tumor volume)=½×a×b^2, where a and b represent the length and width of the tumor, respectively; • (2) T/C (relative tumor proliferation rate, %)=TRTV/CRTV×100%, where TRTV is the RTV of the treatment group, and CRTV is the RTV of the control group; • (3) TGI % (tumor growth inhibition rate)=(1−T/C)×100%; where T and C are the relative tumor volumes at a specific time point in the treatment group and the control group, respectively. • (4) IR (%) (tumor weight inhibition rate)=(1−TWt/TWc)×100%, where TWt is the tumor weight in the treatment group, and TW is the tumor weight in the control group.

T1 sequence (P01116 1-169 isoform P01116-2 G12C): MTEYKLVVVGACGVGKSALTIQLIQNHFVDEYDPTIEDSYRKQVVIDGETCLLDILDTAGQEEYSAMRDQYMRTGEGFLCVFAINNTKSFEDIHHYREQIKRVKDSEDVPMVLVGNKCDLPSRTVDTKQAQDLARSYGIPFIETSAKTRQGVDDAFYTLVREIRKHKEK

Structure (SMILES): C=CC(=O)N1C[C@@H]2C(=O)N(C)c3c(c4cc(Cl)c(-c5c(O)cccc5F)nc4n(-c4c(SC)ccnc4C(C)C)c3=O)N2C[C@H]1C (single isomer, unassigned) [Compound 17]
- Covalent binding rate (%) [1]: 63.4%
- IC50 (NCI-H358 cells): 0.0211 µM
- IR (tumor weight inhibition rate) ([2]; 14 days): 90.8%
- Tumor weight (x ± S) ([2]; 14 days): 0.0157 ± 0.0033 g
- T/C (%) ([2]; Day 15 after administration): 15.6%
- TGI (%) ([2]; Day 15 after administration): 84.4%
- Tumor volume (x ± S) ([2]; Day 15 after administration, mean ± standard error): 52 ± 15 mm^3
- Body weight change ([2]; within 14 days): without significant body weight change
- Growth inhibitory effect on the tumor model (in words) ([2]; within 14 days): obvious growth inhibitory effect
